Measured values taken from patent US20080188499A1, “Carbo- and Hetero-Cyclic Antibiotics and Use Thereof” (priority 2004, published 2008).
Values after ≈ are worked out from the molar mass of the structure shown. Where two headings read alike, the source gives them in different places.

Legend:
E. coli ATCC 25922 = test: MIC determination by broth microdilution, E. coli; format: cell-based, Escherichia coli
Protocol: (§1) Bacteria. Susceptibility tests were performed against several bacterial species following the recommendations from the National Committee for […] (NCCLS). The MICs were determined by a broth microdilution technique using a final volume of 100 μl of cation-adjusted Mueller Hinton Broth (MHBCA) and a bacterial inoculum of 10^5-10^6 Colony Forming Units (CFU)/ml. The inocula were verified and precisely determined by applying 10 μl drops of 10 fold dilutions onto Triptic Soy Agar plates. The CFU were counted after an incubation of 24 h at 35° C. Any experiment showing an inoculum that was more or less than 10^5-10^6 CFU/ml was rejected. Control antibiotics and test compounds were prepared at a concentration equivalent to 2 fold the highest desired final concentration. Compounds were then diluted directly in the 96-well microtiter plates by serial 2-fold dilutions using a multichannel pipette. Microtiter plates were incubated for 24 h at 35° C. and growth was recorded by using a microtiter plate reader at 650 nm as well as by visual observation. The MIC was defined as the lowest concentration of compound yielding no visible growth. At least two commercial antibiotics (e.g., imipenem and vancomycin) were always included as internal microtiter plate controls in each MIC assay.

S. aureus strain Newman = test: In vivo efficacy: S. aureus model of systemic infection in the mouse; conditions: for antimicrobial activity in vivo (viable bacteria in the kidneys): S. aureus systemic infection, administrated by gavage 1 hour post-infection, kidneys 5 hours after inoculation
Protocol: In vivo efficacy. The antimicrobial activity of compounds was also evaluated in a S. aureus model of systemic infection in the mouse. To produce the systemic infection, CD-1 female mice (20 g) were injected intra-peritoneally with 10^7 CFU of S. aureus strain Newman suspended in 0.5 ml of endotoxin-free PBS containing 5% mucin (w/v). The compounds were administrated at 1 hour post-infection and kidneys harvested and pooled, for each animal, 5 hours after bacterial inoculation. Tissues were homogenized in PBS and homogenates serially diluted and plated for CFU determination.

DNA metabolism = test: Mode of action studies: macromolecular biosynthesis assays (incorporation of radiolabeled precursors); format: cell-based; conditions: FIG. 1; initial mode of action studies
Protocol: Mode of action studies. Macromolecular biosynthesis assays were performed to identify the microbial cellular processes selectively affected by antibiotic compounds. Exponentially growing bacteria in MHB were washed and diluted in a complete synthetic medium to an optical density of 0.2 (at 600 nm). Cells were then distributed in 96-well plates containing serially diluted antibiotic compounds and radiolabeled precursors. The radiolabeled precursors were D-[^3H]-alanine for peptidoglycan synthesis, [^3H]-thymidine for DNA synthesis, [^3H]-uridine for RNA synthesis and [^3H]-leucine for protein synthesis. Incorporation was allowed for 30 minutes at 35° C. before macromolecules were precipitated for 1 hour on ice in the presence of 10% trichloroacetic acid. The radioactive precipitates were then collected onto GC filters and the radioactivity measured by liquid scintillation counting. Data were expressed as the percentage of radioactivity incorporated compared to control cells grown in the absence of antibiotic compound.

B. subtilis = test: MIC determination, B. subtilis; format: cell-based; conditions: Bacillus subtilis
Protocol: as §1

Yersinia enterocolytica = test: MIC determination, Yersinia enterocolytica; format: cell-based
Protocol: as §1

[1] = tested on: bacterial genus Mycobacterium; test: MIC determination, Mycobacterium; format: cell-based, Mycobacterium smegmatis
Protocol: as §1
(§2) Fastidious bacteria. […]

Haemophilus influenzae = test: MIC determination, Haemophilus influenzae; format: cell-based
Protocol: as §1, §2

[2] = tested on: Branhamella (Moraxella) catarrhalis; test: MIC determination, Branhamella (Moraxella) catarrhalis; format: cell-based
Protocol: as §1, §2

[3] = tested on: Methicillin-Sensitive S. aureus strains (MSSA); test: MIC determination, Methicillin-Sensitive S. aureus; format: cell-based; conditions: Staphylococcus aureus
Protocol: as §1

B. atrophaeus = test: MIC determination, B. atrophaeus; format: cell-based; conditions: Bacillus atrophaeus
Protocol: as §1

B. cereus = test: MIC determination, B. cereus; format: cell-based; conditions: Bacillus cereus
Protocol: as §1

anaerobic bacteria = test: MIC determination, anaerobic bacteria; format: cell-based; conditions: Bacteroides fragilis
Protocol: as §1, §2

MRSA strains = test: MIC determination by broth microdilution, antibiotic multi-resistant MRSA strains; format: cell-based, S. aureus
Protocol: as §1

E. faecalis = test: MIC determination, Enterococci; format: cell-based; conditions: Enterococcus faecalis
Protocol: as §1

Burkholderia cepacia = test: MIC determination, Burkholderia cepacia; format: cell-based
Protocol: as §1

[4] = Escherichia coli, ATCC25922, E. coli ATCC 25922, read-out: MIC

Compound: O=[N+]([O-])c1ccc(C=Cc2nc(Nc3ccc(O)c(O)c3)c3ccccc3n2)o1 [Example 1, Compound VI, 2-[2-(5-nitro-2-furyl)vinyl]-4-(3,4-dihydroxyanilino)quinazoline]
- MIC (E. coli ATCC 25922; [4]): 0.5 µg/mL (≈ 1.28 µM)
- toxicity in vivo (S. aureus strain Newman; S. aureus systemic infection model): relatively low toxicity
- antimicrobial activity in vivo (viable bacteria in the kidneys) (S. aureus strain Newman; listed as 2-[2-(5-nitro-2-furyl)vinyl]-4-(3,4-dihydroxyanilino)-quinazoline): active in vivo
- antimicrobial activity in vivo (viable bacteria in the kidneys) (S. aureus strain Newman; listed as Example 1 compound VI): reduced the presence of viable bacteria in the kidneys
- mode of action (cellular process affected, incorporation of radiolabeled precursors into macromolecules) (DNA metabolism): inhibition of DNA metabolism

Compound: CN1CCN(c2cc3nc(/C=C/c4ccc([N+](=O)[O-])o4)nc(Nc4ccc(O)c(O)c4)c3cc2F)CC1 [Example VIII compound “q”]
- MIC (B. subtilis): 8 µg/mL (≈ 15.8 µM)
- MIC (Yersinia enterocolytica): 8 µg/mL (≈ 15.8 µM)
- MIC [1]: 8 µg/mL (≈ 15.8 µM)
- MIC (Haemophilus influenzae): 1 µg/mL (≈ 1.97 µM)
- MIC [2]: 1 µg/mL (≈ 1.97 µM)
- MIC [3]: 4 to 8 µg/mL (≈ 7.9 to 15.8 µM)
- MIC (B. atrophaeus): 8 µg/mL (≈ 15.8 µM)
- MIC (B. cereus): 8 µg/mL (≈ 15.8 µM)
- MIC (anaerobic bacteria): 8 µg/mL (≈ 15.8 µM)
- MIC (MRSA strains; Staphylococcus aureus, MRSA, MRSA strain Sa211c, read-out: MIC): 8 µg/mL (≈ 15.8 µM)
- MIC (MRSA strains; Staphylococcus aureus, MRSA, MRSA strain Sa212c, read-out: MIC): 8 µg/mL (≈ 15.8 µM)
- MIC (MRSA strains; Staphylococcus aureus, MRSA, MRSA strain Sa220c, read-out: MIC): 4 µg/mL (≈ 7.9 µM)
- MIC (MRSA strains; Staphylococcus aureus, MRSA, MRSA strain Sa224c, read-out: MIC): 8 µg/mL (≈ 15.8 µM)
- MIC (MRSA strains; Staphylococcus aureus, MRSA, MRSA strain Sa228c, read-out: MIC): 8 µg/mL (≈ 15.8 µM)
- MIC (MRSA strains; Staphylococcus aureus, MRSA, MRSA strain Sa234c, read-out: MIC): 8 µg/mL (≈ 15.8 µM)
- MIC (MRSA strains; Staphylococcus aureus, MRSA, MRSA strain Sa248c, read-out: MIC): 8 µg/mL (≈ 15.8 µM)
- MIC (MRSA strains; Staphylococcus aureus, MRSA, MRSA strain Sa249c, read-out: MIC): 8 µg/mL (≈ 15.8 µM)
- MIC (MRSA strains; Staphylococcus aureus, MRSA, MRSA strain Sa253c, read-out: MIC): 8 µg/mL (≈ 15.8 µM)
- MIC (MRSA strains; Staphylococcus aureus, MRSA, Methicillin-Resistant S. aureus strains (MRSA), read-out: MIC): 4 to 8 µg/mL (≈ 7.9 to 15.8 µM)
- MIC (E. faecalis): 8 µg/mL (≈ 15.8 µM)
- MIC (Burkholderia cepacia): 8 µg/mL (≈ 15.8 µM)

Compound: CCn1cc(C(=O)O)c(=O)c2cc(F)c(N3CCNCC3)cc21 [Norfloxacin]
- MIC (E. coli ATCC 25922; [4]): 0.03 to 0.06 µg/mL (≈ 0.0939 to 0.188 µM)

Compound: CN[C@H](CC(C)C)C(=O)N[C@H]1C(=O)N[C@@H](CC(N)=O)C(=O)N[C@H]2C(=O)N[C@H]3C(=O)N[C@H](C(=O)N[C@H](C(=O)O)c4cc(O)cc(O)c4-c4cc3ccc4O)[C@H](O)c3ccc(c(Cl)c3)Oc3cc2cc(c3O[C@@H]2O[C@H](CO)[C@@H](O)[C@H](O)[C@H]2O[C@H]2C[C@](C)(N)[C@H](O)[C@H](C)O2)Oc2ccc(cc2Cl)[C@H]1O [Vancomycin]
- MIC (E. coli ATCC 25922; Escherichia coli, ATCC25922): > 64 µg/mL

Compound: Gentamicin [reference compound]
- MIC (E. coli ATCC 25922; E. coli ATCC 25922): 0.5 to 2 µg/mL
- MIC (MRSA strains; MRSA strain Sa211c): 1 µg/mL
- MIC (MRSA strains; MRSA strain Sa212c): 0.25 µg/mL
- MIC (MRSA strains; MRSA strain Sa220c): 0.5 µg/mL
- MIC (MRSA strains; MRSA strain Sa224c): 0.25 µg/mL
- MIC (MRSA strains; MRSA strain Sa228c): 32 µg/mL
- MIC (MRSA strains; MRSA strain Sa234c): 1 µg/mL
